Measured values published in the supplement of paper PMC10307832.

Legend:
Test in all cases: relative viability (nuclei count vs DMSO), 5 days (fraction); higher = more cells survive
[1] = tested on: NCI-H1792
In short: (§1)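 Lung cancer cell lines in 1536-well plates were dosed by pin tool the day after seeding, either with one drug alone or with a fixed anchor-drug dose plus five library-drug doses (not always all listed) in √10 steps. After 5 days, cells were fixed and their nuclei stained in one step (final 0.05% Triton X-100, 1% formaldehyde, 1 ug/ml Hoechst), then counted on 4× images. Relative viability is the nuclei count in treated wells divided by that in vehicle wells. Values are medians of duplicate plates.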

[2] = tested on: LC-2-ad
In short: as §1

[3] = tested on: NCI-H2085
In short: as §1

[4] = tested on: LXF-289
In short: as §1

[5] = tested on: NCI-H460
In short: as §1

[6] = tested on: NCI-H1944
In short: as §1

[7] = tested on: HCC-78
In short: as §1

[8] = tested on: LU99A
In short: as §1

[9] = tested on: NCI-H1755
In short: as §1

[10] = tested on: COR-L 105
In short: as §1

[11] = tested on: NCI-H1975
In short: as §1

[12] = tested on: HCC-366
In short: as §1

[13] = tested on: EPLC-272H
In short: as §1

[14] = tested on: A-427
In short: as §1

[15] = tested on: NCI-H1915
In short: as §1

[16] = tested on: NCI-H358
In short: as §1

[17] = tested on: HOP-62
In short: as §1

[18] = tested on: LCLC-97TM1
In short: as §1

[19] = tested on: SK-LU-1
In short: as §1

[20] = tested on: NCI-H1793
In short: as §1

[21] = tested on: UMC-11
In short: as §1

**Q.** `O=C(O)c1ccc(-c2c[nH]c3ncc(-c4ccccc4)cc23)cc1C1CCCC1` + C[C@]1(O)C[C@@H](c2nc(-c3ccc4ccc(-c5ccccc5)nc4c3)c3c(N)nccn32)C1 [Linsitinib] (partner 1 µM) was tested. Which relative viability ([1]; first compound 0.04 µM) did it give?
**A.** The relative viability was 0.577.

**Q.** What about the relative viability ([1]; first compound 0.1265 µM) of the same compound?
**A.** The relative viability was 0.727.

**Q.** What about the relative viability ([1]; first compound 0.4 µM) of the same compound?
**A.** Its relative viability is 0.56.

**Q.** And the relative viability ([1]; first compound 1.265 µM)?
**A.** Its relative viability is 0.558.

**Q.** And the relative viability ([2]; first compound 0.04 µM)?
**A.** The relative viability was 0.81.

**Q.** And the relative viability ([2]; first compound 0.1265 µM)?
**A.** Its relative viability is 0.885.

**Q.** What about the relative viability ([2]; first compound 0.4 µM) of the same compound?
**A.** The relative viability was 0.775.

**Q.** What about the relative viability ([2]; first compound 1.265 µM) of the same compound?
**A.** The relative viability was 0.425.

**Q.** What about the relative viability ([3]; first compound 0.04 µM) of the same compound?
**A.** Its relative viability is 0.938.

**Q.** And the relative viability ([3]; first compound 0.1265 µM)?
**A.** Its relative viability is 1.01.

**Q.** And the relative viability ([3]; first compound 0.4 µM)?
**A.** The relative viability was 0.8.

**Q.** And the relative viability ([3]; first compound 1.265 µM)?
**A.** Its relative viability is 0.644.

**Q.** What about the relative viability ([4]; first compound 0.04 µM) of the same compound?
**A.** The relative viability was 0.94.

**Q.** And the relative viability ([4]; first compound 0.1265 µM)?
**A.** Its relative viability is 0.937.

**Q.** What about the relative viability ([4]; first compound 0.4 µM) of the same compound?
**A.** The relative viability was 0.706.

**Q.** What about the relative viability ([4]; first compound 1.265 µM) of the same compound?
**A.** Its relative viability is 0.322.

**Q.** And the relative viability ([5]; first compound 0.04 µM)?
**A.** The relative viability was 0.783.

**Q.** And the relative viability ([5]; first compound 0.1265 µM)?
**A.** The relative viability was 0.989.

**Q.** What about the relative viability ([5]; first compound 0.4 µM) of the same compound?
**A.** Its relative viability is 0.753.

**Q.** And the relative viability ([5]; first compound 1.265 µM)?
**A.** The relative viability was 0.662.

**Q.** What about the relative viability ([6]; first compound 0.04 µM) of the same compound?
**A.** The relative viability was 1.18.

**Q.** What about the relative viability ([6]; first compound 0.1265 µM) of the same compound?
**A.** The relative viability was 1.39.

**Q.** And the relative viability ([6]; first compound 0.4 µM)?
**A.** Its relative viability is 1.04.

**Q.** And the relative viability ([6]; first compound 1.265 µM)?
**A.** Its relative viability is 1.02.

**Q.** And the relative viability ([7]; first compound 0.04 µM)?
**A.** The relative viability was 0.431.

**Q.** What about the relative viability ([7]; first compound 0.1265 µM) of the same compound?
**A.** Its relative viability is 0.571.

**Q.** And the relative viability ([7]; first compound 0.4 µM)?
**A.** The relative viability was 0.545.

**Q.** What about the relative viability ([7]; first compound 1.265 µM) of the same compound?
**A.** The relative viability was 0.534.

**Q.** And the relative viability ([8]; first compound 0.04 µM)?
**A.** Its relative viability is 0.548.

**Q.** What about the relative viability ([8]; first compound 0.1265 µM) of the same compound?
**A.** The relative viability was 0.528.

**Q.** What about the relative viability ([8]; first compound 0.4 µM) of the same compound?
**A.** The relative viability was 0.533.

**Q.** And the relative viability ([8]; first compound 1.265 µM)?
**A.** The relative viability was 0.511.

**Q.** And the relative viability ([9]; first compound 0.04 µM)?
**A.** The relative viability was 0.96.

**Q.** And the relative viability ([9]; first compound 0.1265 µM)?
**A.** The relative viability was 1.01.

**Q.** What about the relative viability ([9]; first compound 0.4 µM) of the same compound?
**A.** Its relative viability is 1.02.

**Q.** And the relative viability ([9]; first compound 1.265 µM)?
**A.** The relative viability was 0.961.

**Q.** What about the relative viability ([10]; first compound 0.04 µM) of the same compound?
**A.** Its relative viability is 1.07.

**Q.** What about the relative viability ([10]; first compound 0.1265 µM) of the same compound?
**A.** The relative viability was 0.919.

**Q.** What about the relative viability ([10]; first compound 0.4 µM) of the same compound?
**A.** Its relative viability is 1.

**Q.** And the relative viability ([10]; first compound 1.265 µM)?
**A.** Its relative viability is 0.92.

**Q.** What about the relative viability ([11]; first compound 0.04 µM) of the same compound?
**A.** The relative viability was 0.903.

**Q.** What about the relative viability ([11]; first compound 0.1265 µM) of the same compound?
**A.** The relative viability was 0.935.

**Q.** And the relative viability ([11]; first compound 0.4 µM)?
**A.** Its relative viability is 0.951.

**Q.** And the relative viability ([11]; first compound 1.265 µM)?
**A.** The relative viability was 1.

**Q.** And the relative viability ([12]; first compound 0.04 µM)?
**A.** The relative viability was 0.657.

**Q.** And the relative viability ([12]; first compound 0.1265 µM)?
**A.** Its relative viability is 0.759.

**Q.** And the relative viability ([12]; first compound 0.4 µM)?
**A.** Its relative viability is 0.882.

**Q.** And the relative viability ([12]; first compound 1.265 µM)?
**A.** The relative viability was 0.573.

**Q.** And the relative viability ([13]; first compound 0.04 µM)?
**A.** The relative viability was 1.16.

**Q.** And the relative viability ([13]; first compound 0.1265 µM)?
**A.** Its relative viability is 1.19.

**Q.** And the relative viability ([13]; first compound 0.4 µM)?
**A.** Its relative viability is 1.42.

**Q.** What about the relative viability ([13]; first compound 1.265 µM) of the same compound?
**A.** The relative viability was 0.857.

**Q.** What about the relative viability ([14]; first compound 0.04 µM) of the same compound?
**A.** The relative viability was 1.14.

**Q.** What about the relative viability ([14]; first compound 0.1265 µM) of the same compound?
**A.** Its relative viability is 1.1.

**Q.** What about the relative viability ([14]; first compound 0.4 µM) of the same compound?
**A.** The relative viability was 1.05.

**Q.** And the relative viability ([14]; first compound 1.265 µM)?
**A.** Its relative viability is 0.865.

**Q.** And the relative viability ([15]; first compound 0.04 µM)?
**A.** The relative viability was 1.06.

**Q.** What about the relative viability ([15]; first compound 0.1265 µM) of the same compound?
**A.** Its relative viability is 1.1.

**Q.** What about the relative viability ([15]; first compound 0.4 µM) of the same compound?
**A.** Its relative viability is 0.946.

**Q.** What about the relative viability ([15]; first compound 1.265 µM) of the same compound?
**A.** The relative viability was 0.799.

**Q.** What about the relative viability ([16]; first compound 0.04 µM) of the same compound?
**A.** The relative viability was 0.649.

**Q.** What about the relative viability ([16]; first compound 0.1265 µM) of the same compound?
**A.** The relative viability was 0.819.

**Q.** What about the relative viability ([16]; first compound 0.4 µM) of the same compound?
**A.** Its relative viability is 0.674.

**Q.** And the relative viability ([16]; first compound 1.265 µM)?
**A.** The relative viability was 0.386.

**Q.** And the relative viability ([17]; first compound 0.04 µM)?
**A.** The relative viability was 1.1.

**Q.** What about the relative viability ([17]; first compound 0.1265 µM) of the same compound?
**A.** Its relative viability is 1.03.

**Q.** And the relative viability ([17]; first compound 0.4 µM)?
**A.** Its relative viability is 1.04.

**Q.** What about the relative viability ([17]; first compound 1.265 µM) of the same compound?
**A.** The relative viability was 0.794.

**Q.** And the relative viability ([18]; first compound 0.04 µM)?
**A.** Its relative viability is 0.204.

**Q.** What about the relative viability ([18]; first compound 0.1265 µM) of the same compound?
**A.** The relative viability was 0.218.

**Q.** What about the relative viability ([18]; first compound 0.4 µM) of the same compound?
**A.** Its relative viability is 0.175.

**Q.** And the relative viability ([18]; first compound 1.265 µM)?
**A.** The relative viability was 0.166.

**Q.** And the relative viability ([19]; first compound 0.04 µM)?
**A.** The relative viability was 1.06.

**Q.** And the relative viability ([19]; first compound 0.1265 µM)?
**A.** Its relative viability is 1.

**Q.** What about the relative viability ([19]; first compound 0.4 µM) of the same compound?
**A.** The relative viability was 0.943.

**Q.** And the relative viability ([19]; first compound 1.265 µM)?
**A.** The relative viability was 0.851.

**Q.** And the relative viability ([20]; first compound 0.04 µM)?
**A.** The relative viability was 0.909.

**Q.** What about the relative viability ([20]; first compound 0.1265 µM) of the same compound?
**A.** The relative viability was 0.986.

**Q.** What about the relative viability ([20]; first compound 0.4 µM) of the same compound?
**A.** The relative viability was 1.09.

**Q.** And the relative viability ([20]; first compound 1.265 µM)?
**A.** Its relative viability is 0.889.

**Q.** What about the relative viability ([21]; first compound 0.04 µM) of the same compound?
**A.** Its relative viability is 0.98.

**Q.** And the relative viability ([21]; first compound 0.1265 µM)?
**A.** The relative viability was 1.04.

**Q.** And the relative viability ([21]; first compound 0.4 µM)?
**A.** The relative viability was 1.07.

**Q.** And the relative viability ([21]; first compound 1.265 µM)?
**A.** The relative viability was 0.971.
